According to patent US11357786B2, “Synthetic disugar hydrocarbons as natural analogs to control microbial behaviors” (Syracuse University, priority 2014, dated 2022):

How the values were obtained:
PAO1 biofilm = assay: Crystal violet dye based biofilm inhibition assay, maltose derivatives (Example 1); assay type: cell-based, Pseudomonas aeruginosa; details: for Inhibition of PAO1 biofilm: 110 μM, 24 h, CV assay; for Anti-biofilm activity (inhibition): concentration not given
Protocol: A crystal violet (CV) assay was used to measure the amount of PAO1 biofilm formed after 24 h of bacterial inoculation. The fluorescence of green fluorescent proteins (GFP) expressed by PAO1-GFP was measured to directly quantify bacterial adhesion on polystyrene black 96 well plates with and without maltose derivatives after 2 h of bacterial inoculation. To evaluate the potential of maltose derivatives as both anti-biofilm and anti-adhesion agents, they were compared to a brominated furanone (BF8) known to inhibit biofilm formation, and two generic surfactants, sodium dodecyl sulfate (SDS) and tetra (ethylene glycol) monododecyl ether (C12EG4OH). […] P. aeruginosa strain PAO1-EGFP that constitutively producing green fluorescent protein was allowed to form biofilm on sterile steel coupons.
Inhibitory effect of all the maltose hydrocarbons on P. aeruginosa biofilm formation was determined by crystal violet dye based biofilm inhibition assays. Overnight culture of wild type P. aeruginosa (PAO1) was sub cultured to an OD600 of 0.01 into the 95:5 M9+:Lb medium. 200 μL of the sub culture was aliquoted into the wells of 96 well polystyrene microtiter plate when it reached the OD600 of 0.1. Predetermined concentrations of the test compounds were then added to the respective wells containing sub culture. Sample plates were wrapped in GLAD Press n′ Seal® followed by incubation under stationary conditions for 24 h at 37° C. After incubation the media was discarded and the plates were washed with water and dried for 1 h at 37° C. The sample plates were stained with 200 μL of 0.1% aqueous solution of crystal violet (CV) and followed by incubation at ambient temperature for 20 min. The CV stain was then discarded and the plates were washed with water. The remaining biofilm adhered stain was re-solubilized with 200 μL of 30% acetic acid. After the stain was dissolved (15 minutes), 100 μL of the solubilized CV was transferred from each well into the corresponding wells of a new polystyrene microtiter dish. Biofilm inhibition was quantified by measuring the OD600 of each well in which a negative control lane wherein no biofilm was formed served as a background and was subtracted out. The percent inhibition was calculated by the comparison of the OD600 for biofilm grown in the absence of compound (control) versus biofilm grown in the presence of compound under identical conditions.
Predetermined amounts maltose derivatives stock solution was added to the 200 μL bacterial culture in 96 well plate so that the final concentration of the agent reaches the desired values of 1, 5, 10, 20, 40, 85, 113, 140 μM. Biofilm inhibition and dispersion assay was carried as described previously.

[1] = tested on: las quorum sensing system; assay: las quorum sensing gene reporter assay (plasI-LVAgfp); assay type: cell-based, Pseudomonas aeruginosa; details: natural autoinducers present
Source text: The ability of the maltoside derivatives to antagonize the two quorum sensing circuits las and/or rhl of P. aeruginosa was investigated by using two reporter strains (PAO1/plasI-LVAgfp, PAO1/prhlI-LVAgfp). These reporter strains produce natural AHL signals, and binding of such signal molecules to the Lux-type receptor proteins ([…]) activates the expression of green fluorescent protein (GFP) encoded by the plasmid.
One of the recent approach for a nonmicrobicidal control of biofilm aims to develop agents that disrupt bacterial cell-to-cell communication by acting as mimics to the natural molecules (autoinducer) that bind […], which are encoded by las and rhl gene. The binding of these mimics with lasR and rhlR proteins either activates or represses the expression of lasI or rhlI.^6 In gene reporter assay, the expression of lasI and rhlI proteins is quantified by measuring expression of green fluorescent protein (GFP) fused to lasI and rhlI genes.^5 Two reporter strains of Pseudomonas aeruginosa (PAO1/plasI_LVAgfp and PAO1/prhlI_LVAgfp) express green fluorescence protein on activation of las or rhl quorum sensing system. The activation or repression of las or rhl quorum sensing system in PA was tested by various DSHs.
Strains PAO1/plasI-LVAgfp and PAO1/prhlI-LVAgfp were grown overnight in LB-media that was supplemented with 300 μg/mL carbenicillin and after 16 hours, the bacteria were sub cultured in LB media (supplemented with 300 μg/mL carbenicillin) to OD600 as 0.01. The OD600 was allowed to reach 0.1 and then 200 μL of culture was aliquoted into the wells of 96-well microtiter plate. DSHs were then added to assigned wells at two different concentrations (85 μM and 160 μM). No agent was added to the well for positive control. The plates then incubated at 37° C. for 24 h in a rotary shaking incubator (250 rpm). The culture from each well was then transferred to corresponding wells of a black walled flat-bottom, 96-well plate (μClear, Greiner-One 655096). The fluorescence and OD absorbance in each well was measured by Synergy 2 multi-mode microplate reader with aGen5 data analysis software. […] Fluorescence was measured at an excitation wavelength of 500 nm and an emission wavelength of 540 nm.
For an antagonist assay, overnight culture of P. aeruginosa PAO1/plasI-LVAgfp (las system) or PAO1/prhlI-LVAgfp (rhl system) in LB broth (supplemented with 300 μg/mL carbenicillin) was grown from a single colony on a LB agar plate supplemented with 300 μg/mL carbenicillin. […] The fluorescence and OD absorbance in each well was measured by Synergy 2 multi-mode microplate reader with Gen5 data analysis software. […] Fluorescence was measured at an excitation wavelength of 500 nm and an emission wavelength of 540 nm. […]

Row | SMILES | Inhibition of PAO1 biofilm (PAO1 biofilm) | Anti-biofilm activity (inhibition) (PAO1 biofilm) | Change of GFP fluorescence, las reporter strain PAO1/plasI-LVAgfp (antagonist assay) [1] | Change of GFP fluorescence, las reporter strain PAO1/plasI-LVAgfp (antagonist assay) ([1]; listed as 13: SFαC) | Change of GFP fluorescence, las reporter strain PAO1/plasI-LVAgfp (antagonist assay) ([1]; listed as 12: SFβC)
1 | CCCCCCCCCCCCOCCOCCOCCOCCO [C12EG4OH, tetra (ethylene glycol) monododecyl ether, reference compound] | did not show any noticeable biofilm inhibition | did not show any anti-biofilm activities |  |  | 
2 | CCCCCCCCCCCCOS(=O)(=O)[O-].[Na+] [SDS, sodium dodecyl sulfate, reference compound] | did not show any noticeable biofilm inhibition | did not show any anti-biofilm activities |  |  | 
3 | CC(C)CCCC(C)CCCC(C)CCO[C@H]1O[C@H](CO)[C@@H](O[C@@H]2O[C@H](CO)[C@@H](O)[C@H](O)[C@H]2O)[C@H](O)[C@H]1O (stereo partly drawn) [SFαC (13), saturated farnesyl-α-cellobioside] |  |  | neither SFβC (12) nor SFαC (13) caused a significant change in the fluorescence | no significant change in the fluorescence | 
4 | CC(C)CCCC(C)CCCC(C)CCO[C@@H]1O[C@H](CO)[C@@H](O[C@@H]2O[C@H](CO)[C@@H](O)[C@H](O)[C@H]2O)[C@H](O)[C@H]1O (stereo partly drawn) [SFβC (12), saturated famesyl-β-cellobioside] |  |  | neither SFβC (12) nor SFαC (13) caused a significant change in the fluorescence |  | no significant change in the fluorescence
